Measurements from paper PMC9386018, “A lymphatic-absorbed multi-targeted kinase inhibitor for myelofibrosis therapy” (Nature Communications, 2022).
Where “and” joins values, the source holds several entries; their conditions need not be identical. Identical values can stand only once.

Legend:
[1] = tested on: ERK1/2 and pERK1/2 (pT202/pY204) in bone marrow; assay: MPL^W515L MF mouse model: ERK1/2 and pERK1/2 immunoblot of bone marrow; format: in vivo; details: MPL^W515L mice, oral 400 mg kg^−1 daily, 28 d
Method: Generation of the MPL^W515L mutant MF mouse model was similar to previously described methods. Briefly, female donor BALB/c mice were treated with 5-fluorouracil at 150 mg kg^−1 intraperitoneal for 5 d before harvesting bone marrow. Hematopoietic stem and progenitor cells were enriched with CD117 magnetic beads (Miltenyi Biotec), transduced with retrovirus containing MSCV-hMPL W515L-IRES-GFP, then 50,000 transduced HSPCs along with 300,000 total non-stem cells were injected intravenously into lethally irradiated female BALB/c recipients. Development of MF was evaluated by spleen volumes using MRI beginning ~14 d following bone marrow transplantation (BMT) as outlined below, continuing weekly until end of the study. Mice were separated into equal groups based on spleen size ~14–21 d post-BMT, then treated with vehicle (Maisine CC) or LP-182 at 400 mg kg^−1 daily by oral gavage for 14–28 d or until mice were euthanized using guidelines for end stage illness and humane endpoints. Untreated healthy control animals were used for experimental comparisons. […] Soluble protein extracts were isolated by centrifugation at 15,000 x g for 15 min at 4 °C, quantified using Micro BCA protein assay (Thermo Scientific), then mixed with reducing 6X SDS-PAGE loading dye, heated for 8 min at 95 °C, and stored at −20 °C until immuno-blot analysis. […]

[2] = Pathological and histological toxicity screening in healthy mice; format: in vivo, mouse; parameters: Hematology Analysis WBC: unit not given here; details: for Body weight: Supplementary Figure 8a
Method: Female CD-1 mice were dosed orally with vehicle (Maisine CC; n = 5) or LP-182 at 400 mg kg^−1 (n = 4) daily for 10 d, followed by an 8 d rest period, then underwent necropsy for hematological, histological, and pathological evaluation by the University of Michigan Unit for Laboratory Animal Medicine In Vivo Animal Core. Untreated animals (n = 3) were also monitored during the study for non-compound related adverse findings (ie. gavage stress impacting weight gain, vehicle-related toxicity), however no findings were observed, thus main comparisons were made between vehicle and compound treated mice. […] Briefly, mice were euthanized by CO2 inhalation, then blood was collected by cardiac puncture and transferred into EDTA anticoagulant-containing tubes, followed by gross necropsy, then tissue harvest and fixation in 10% neutral buffered formalin at a 10:1 (v/v) ratio of fixative to tissue. Differential blood counts were generated from whole blood using a Hemavet 950 automated hematology analyzer (Drew Scientific), and tissues were processed for paraffin embedding using routine histological methods, then sectioned at 4 µm by rotary microtome and mounted on glass slides for hematoxylin and eosin (H&E) staining and evaluation by light microscopy at magnifications ranging from 10–40x. Data was generated from n ≥ 3 individual animals per grouping. Two animals in the vehicle treated group were excluded from blood count analysis due to insufficient sample collection and sample clotting, respectively.

[3] = healthy mice, oral 400 mg kg^−1 for 10 d, 8 d rest
[4] = individual animals, Supplementary Figure 8c
[5] = individual animals, Supplementary Figure 8c, in 10^3/µL (unit assumed)
[6] = individual animals, Supplementary Figure 8c, in % (unit assumed)
[7] = individual animals, Supplementary Figure 8c, in fL (unit assumed)
[8] = individual animals, Supplementary Figure 8c, in g/dL (unit assumed)

O=C(NOCCOCCOCCOCCC(=O)N1CCN(c2cnc3ccc(-c4cnc(Cl)c(NS(=O)(=O)c5ccc(F)cc5)c4)cc3n2)CC1)c1ccc(F)c(F)c1Nc1ccc(I)cc1F [LP-182, N-(2-(2-(2-(3-(4-(7-(6-chloro-5-((4-fluorophenyl)sulfonamido)pyridin-3-yl)quinoxalin-2-yl)piperazin-1-yl)-3-oxopropoxy)ethoxy)ethoxy)ethoxy)-3,4-difluoro-2-((2-fluoro-4-iodophenyl)amino)benzamide]
levels and activation of ERK1/2 in bone marrow [1]: attenuate downstream MPL^W515L signal transduction
Relative organ/body weight, Brain ([2]; Brain, individual animals, Supplementary Figure 8b): 1.539% and 1.685% and 1.7935% and 1.6704%
Relative organ/body weight, Left kidney ([2]; Left kidney, individual animals, Supplementary Figure 8b): 0.6549% and 0.6559% and 0.6824% and 0.6502%
Relative organ/body weight, Liver ([2]; Liver, individual animals, Supplementary Figure 8b): 5.775% and 6.631% and 5.788% and 5.583%
Relative organ/body weight, Right kidney ([2]; Right kidney, individual animals, Supplementary Figure 8b): 0.662% and 0.6523% and 0.6788% and 0.6203%
Relative organ/body weight, Spleen ([2]; Spleen, individual animals, Supplementary Figure 8b): 0.5915% and 0.4229% and 0.6217% and 0.4223%
Relative organ/body weight, Thymus ([2]; Thymus, individual animals, Supplementary Figure 8b): 0.2641% and 0.1505% and 0.283% and 0.2317%
Body weight ([2]; Time 1 d, individual animals): 24 g and 26 g and 25 g (2×)
Body weight ([2]; Time 5 d, individual animals): 26 g (3×) and 27 g
Body weight ([2]; Time 10 d, individual animals): 26 g (3×) and 27 g
Body weight ([2]; Time 15 d, individual animals): 27 g (3×) and 30 g
Body weight ([2]; Time 18 d, individual animals): 28.4 g and 27.9 g and 27.99 g and 26.76 g
adverse effects, body weight, complete blood counts [2, 3]: no adverse effects, change in body weight, or change in complete blood counts
necropsy histopathology [2, 3]: no histopathological abnormalities
tolerability [2, 3]: well tolerated with no observed toxicity
Hematology Analysis BA [2, 4]: 0.03 and 0.02 and 0.04 and 0.06
Hematology Analysis EO [2, 4]: 0.24 and 0.11 and 0.2 and 0.16
Hematology Analysis WBC [2, 4]: 7.06 and 10.06 and 5.16 (2×)
Hematology Analysis LY [2, 5]: 4.99 and 6.24 and 3.4 and 3.44
Hematology Analysis MO [2, 5]: 0.24 and 0.93 and 0.14 and 0.21
Hematology Analysis NE [2, 5]: 1.57 and 2.76 and 1.38 and 1.3
Hematology Analysis PLT [2, 5]: 721 and 1152 and 272 and 338
Hematology Analysis RBC ([2]; individual animals, Supplementary Figure 8c, in 10^6/µL (unit assumed)): 8.48 and 9.05 and 9.08 and 9.55
Hematology Analysis HCT [2, 6]: 49.5 and 47.2 and 51.7 and 49.4
Hematology Analysis RDW [2, 6]: 16.8 and 16.2 and 17.4 and 15.3
Hematology Analysis MCV [2, 7]: 58.4 and 52.2 and 56.9 and 51.7
Hematology Analysis MPV [2, 7]: 5.2 and 4.6 and 5.8 and 5.6
Hematology Analysis HB [2, 8]: 13.7 and 13.8 and 15 and 14.2
Hematology Analysis MCHC [2, 8]: 27.7 and 29.2 and 29 and 28.7
Hematology Analysis MCH ([2]; individual animals, Supplementary Figure 8c, in pg (unit assumed)): 16.2 and 15.2 and 16.5 and 14.9
